Laboratory results reported in a melting point compilation (Tetko et al.; mined from patent text by program, amines drawn as free bases though some values may be those of a salt).

Point of comparison: CC(=O)N1C(=O)C=CC1=O, melting point 58 °C. Against it:
- CC1Cc2ccc(Br)cc2C(c2ccc(N)cc2)=NN1C1CC1 (configuration not stated) — higher, 113 to 116 °C
- CCn1cc(-c2ccncn2)cc(Br)c1=O — higher, 195 to 197 °C
- CCCN(Cc1ccc(-c2ccccc2-c2nc(=O)s[nH]2)cc1)c1nc(C)ncc1C(=O)OCC — higher, 173 to 175 °C
- CC(=O)Oc1cccc2c1C13CCN(C)C(C2)C1CCC(=O)C3 (single isomer, unassigned; (-)) — higher, 96 to 97 °C
- O=C(O)[C@@H]1CCCC[C@H]1C(=O)CS (relative stereo) — higher, 112 to 117 °C
- C[C@@H]1S[C@@H](C(=O)Nc2ccc(CN3CCC(=O)CC3)cc2)Cc2cc3c(cc2C1=O)OCO3 — higher, 199 to 201 °C
- CCCCCCCCS(=O)(=O)Nc1cc(C(=O)Nc2ccccc2)ccc1OC — higher, 154 to 155 °C
- O=C1NC(=O)C(=Cc2ccc(OCCN3c4ccccc4Sc4ccccc43)cc2)S1 — higher, 168 to 170 °C
- O=C(O)c1ccc2c(-c3ccccc3)coc2c1 — higher, 160 to 170 °C
- COC(=O)c1cc(C(F)(F)F)ccc1N — lower, 51 to 52 °C
- CCCCCCCCCCCC(=O)N[C@@H](C)C(=O)N[C@H](CCC(=O)OCc1ccccc1)C(N)=O — higher, 169 °C
- CCOC(=O)CC1CCc2c(oc3ccc(Cl)cc23)C1 (configuration not stated) — lower, 54 to 55.5 °C
- CC(C)(C)OC(=O)N[C@H]1CCN(C(=O)OCc2ccccc2)C1 — higher, 124 to 125 °C
- CCCCCCCCCCCCCCCCCC(=O)OCCCCCCCCCCCCCC — lower, 40 °C
- Nc1ncc(-c2ccc(F)c3ccccc23)o1 — higher, 171 to 174 °C
- CCCCOC(=O)NC1(c2ccccc2Cl)CCCCC1=O (configuration not stated) — higher, 130 to 132 °C
- O=c1[nH][nH]c(C(F)(F)F)c1Cc1ccc2ccccc2c1 — higher, 165 to 167 °C
- Oc1cc2cc(-c3ccccc3Cl)sc2c(Cl)c1Cl — higher, 174 to 175 °C
- CCOC(=O)C(=O)CC(=O)c1cn(Cc2ccccc2)c2ccccc2c1=O — higher, 141 to 142 °C
- COc1ccc2c(O)c(CO)cnc2c1 — higher, 291 to 297 °C
- Cc1cccc(Nc2cc(Cl)nc(SCC(=O)NC3CCCCC3)n2)c1C — higher, 156 to 158 °C
- CC(=O)Nc1ccc(COc2cccc(C(N)=O)c2)cc1 — higher, 198 to 199 °C
- CCOC(=O)c1csnc1-c1ccc(OC)c(OC)c1 — higher, 74 to 75.5 °C
- NCc1nc(-c2ncn3c2[C@@H]2CCN2C(=O)c2sccc2-3)no1 — higher, 235 to 238 °C
- CC(=O)N1CC(C)(C)c2cc3nc(C(F)(F)F)[nH]c3cc21 — higher, 290 to 291 °C
- O=C(O)C(=O)CC(=O)c1cccn1CCCCc1ccccc1 — higher, 119 to 121 °C
- COc1ccc(C[C@H](Nc2nc3ccc(Cl)cc3cc2C(=O)O)C(=O)O)cc1 — higher, 155 to 158 °C
- O=C1CCC(c2ccc(N3CC(CO)OC3=O)cc2)CC1 (racemic) — higher, 152 °C
- O=P12CN3CN(C1)S(=O)(=O)N(C3)C2 — higher, 245 to 246 °C
- COc1cc(O)c(C(=O)c2ccccc2)cc1S(=O)(=O)Cl — higher, 165 to 172 °C
- CC(C)c1cccc(C(C)C)c1NC(=O)CCl — higher, 146 to 148 °C
- CC(=O)N(CC(=O)O)c1c(C(=O)c2ccccc2)[nH]c2cc(Cl)ccc12 — higher, 148 to 154 °C
- Cc1c(F)c(OC(F)F)cc2c1c(C#N)c(-c1ccc(S(=O)(=O)N[C@@H](C)C(F)(F)F)cn1)n2C1CCC1 — higher, 182 to 186 °C
- CCCC(=O)c1ccc(OCCCCC(=O)O)c(Cl)c1Cl — higher, 102 to 103 °C
- Nc1nc(NC2CCCCC2)nc2c1ncn2C1CCCCC1 — higher, 109 to 117 °C
- CN1Cc2ccccc2C(O)(Cc2ccc(Cl)cc2F)C1 (configuration not stated) — higher, 113 to 116 °C
- CCCN(CCC)C1COc2cccc(C(=O)C3CC3)c2C1 (configuration not stated) — higher, 100 to 102 °C
- O=C1CCN(Cc2ccccc2)CC1C1c2ccccc2C=Cc2ccccc21 (configuration not stated) — higher, 167 to 169 °C
- Cc1c(Cl)ccc(C(=O)c2cnn(C)c2O)c1Cl — higher, 131 to 135 °C
- CC(=O)NNc1c(C)cnc2c(NC(=O)c3c(Cl)cccc3Cl)ccc(C)c12 — higher, 234 to 238 °C
- CC(C)Nc1cccnc1N1CCN(C(=O)c2ccc(C(=O)NCCOCCO)cn2)CC1 — higher, 93 to 95 °C
- Cc1c(Sc2ccccc2C(F)(F)F)c2cc(NS(C)(=O)=O)ccc2n1CC(=O)O — higher, 207 °C
- COc1cc2ncnc(N3CCN(C(=O)Nc4ccc(OC(C)C)cc4)CC3)c2cc1OC — higher, 220 to 222 °C
- Nc1ccc(Cn2ncc3ccccc32)cc1 — higher, 110 to 111 °C
- Cc1ccc(-c2cn(C)cc(-c3cccc(C(F)(F)F)c3)c2=O)cc1C — higher, 150 to 153 °C
- COc1ccc(S(=O)(=O)N(C)C)c([N+](=O)[O-])c1 — higher, 90 to 92 °C
- CCc1ccccc1NC(Nc1ccccc1CC)Nc1ccccc1CC — higher, 76 to 78 °C
- COCCNc1c([N+](=O)[O-])cc(C(F)(F)F)c2sc(=O)sc12 — higher, 96 to 98 °C
- CCOC(=O)c1cc2sc(C3CCC(c4c(F)cccc4F)=N3)cc2s1 (configuration not stated) — higher, 107 °C
- Cc1cc(C(=S)CBr)ccc1O — higher, 118 to 120 °C
- CSC(=C[N+](=O)[O-])NC(C)C(C)(C)C (configuration not stated) — higher, 69 °C
- CN(O)C(=O)c1ccc(CCCCc2ccc(C(=O)N(C)O)cc2)cc1 — higher, 157 to 159 °C
- OC1CSC(Oc2cc(-c3ccccn3)cc(F)c2F)C(O)C1O (configuration not stated) — higher, 162 °C
- COc1ccc(C(=O)Cc2c(Cl)cncc2Cl)cc1OC1CCCC1 — higher, 119 to 120 °C
- O=C(NCC1Cc2cc(Br)cc3[nH]c(=O)c(=O)n1c23)c1ccccc1 (configuration not stated) — higher, 180 to 182 °C
- CC(C)(C)c1cc(CON2C(=O)COc3ccc(C=C4SC(=S)NC4=O)cc32)cc(C(C)(C)C)n1 — higher, > 300 °C
- Clc1cc2c(cc1Cl)OCCO2 — higher, 147 to 148 °C
- CC(C)n1c(=O)sc2cc([N+](=O)[O-])ccc21 — higher, 138 to 142 °C
- CCCNC1=CC(=O)c2c(OC)ccc(OC)c2C1=O — higher, 175 to 176 °C
- CC1CC(=O)NN=C1c1ccc(Nc2nc(=O)cc[nH]2)cc1 (configuration not stated) — higher, 268 to 270 °C
- Nc1ccc(OCCCCCC(=O)OCCOCCOC(=O)CCCCCOc2ccc(N)cc2)cc1 — not separable, 56 to 58 °C
- CCC(=O)N(C)c1cccc(-c2ccc3nncn3n2)c1 — higher, 146 to 150 °C
- N#Cc1nc(F)c(F)c(F)c1Cl — lower, 41.5 to 43 °C
- Oc1ccc(CCNc2ncnc3scnc23)cc1 — higher, 161 to 168 °C
- CN(C)C1CCc2[nH]c3c(C#N)cccc3c2C1 (configuration not stated) — higher, 177 to 179 °C
- CS(=O)(=O)c1ccc(-n2nc(C(F)(F)F)cc2-c2ccc(-c3cscn3)cc2)cc1CO — higher, 203 to 205 °C
- COc1cccc(C(=O)Nc2ccc(C(C)=O)cc2)c1 — higher, 152 to 154 °C
- Cc1ccc(-c2ccc(C(=O)Nc3ccc4nc(CN5CCCC5)ccc4c3)cc2)cc1 — higher, 192 to 193 °C
- Cc1c(C#N)c(SC(F)(F)F)cn1-c1c(Cl)cc(C(F)(F)F)cc1Cl — higher, 98.5 °C
- CC(C)c1nc2cc3c(cc2[nH]1)NC(=O)C3(C)C — higher, 282 to 284 °C
- S=C=NCC1CC(c2ccc(Br)cc2)=NO1 (configuration not stated) — higher, 123 to 125 °C
- CN(c1ccc(S(C)(=O)=O)cc1)S(=O)(=O)c1cccc(NC(=O)c2ccc(S(C)=O)cc2)c1 (configuration not stated) — higher, 184 to 186 °C
- COc1cccc(-c2cn3cccc(C=O)c3n2)c1 — higher, 71 to 73 °C
- O=C(CN(C(=O)CCl)C1Cc2ccccc2C1)OCc1ccccc1 — higher, 99.5 to 100 °C
- CC(C)(C)Sc1c(CC(C)(C)C(=O)O)n(Cc2ccc(Cl)cc2)c2ccc(OCc3ccc(Cl)s3)cc12 — higher, 182 to 184 °C
- CCCC(=CC=CC(C)=CC(=O)O)c1cc(C(C)(C)C)cc(C(C)(C)C)c1 — higher, 143 to 144 °C
- N#CC1c2cccc(Br)c2C=CN1C(=O)c1ccccc1 (configuration not stated) — higher, 177 to 178 °C
- [N-]=[N+]=NS(=O)(=O)c1cc(C(=O)O)c(O)c(S(=O)(=O)N=[N+]=[N-])c1 — higher, 184 to 186 °C
- CC(=O)Oc1ccc2c(c1)CCC1C2C(O)CC2(C)C(=O)CCC12 (configuration not stated) — higher, 180 to 182 °C
- COc1cc2c(cc1C(F)(F)F)N(C(=O)Nc1csc(-c3cccnc3)n1)CC2 — higher, > 200 °C
- CC(C)P1(=O)c2ccccc2CN1c1cccc(C(F)(F)F)c1 (configuration not stated) — higher, 117 to 119 °C
- Cc1cc(C2=NN=C(C(N)=O)Cc3cc4c(cc32)OCO4)ccc1[N+](=O)[O-] — higher, 266 to 268 °C
- CCCCNS(=O)(=O)CC(O)C(O)C(CC1CCCCC1)NC(=O)CC(CC)c1c[nH]cn1 (configuration not stated) — higher, 60 to 90 °C
- CC1=CC(OC(=O)c2ccc(N)cc2N)C(O)C(C)(C)CC1=O (configuration not stated) — higher, 154 to 156 °C
- COC(=O)CCCCC(=O)Nc1c(I)c(C(=O)O)c(I)c(N(C)C(C)=O)c1I — higher, 229 to 232 °C
- COc1cc(CC#N)c(OC)c(C)c1C — higher, 98 to 99 °C
- CCCCc1cccc(-c2nc(C(C)C)n(C)n2)n1 — higher, 58.1 °C
- COC(=O)N(CC(=O)OC(C)(C)C)S(=O)(=O)c1ccc(N2CCC(NC[C@H](O)c3ccc(O)c(NS(C)(=O)=O)c3)CC2)cc1 — higher, 110 to 115 °C
- CC(C)(C)c1cccc(S(=O)(=O)n2c(Cc3ccc(C(=O)NS(=O)(=O)c4ccccc4)cc3)cc3cc(C(F)(F)F)ccc32)c1 — higher, 99 °C
- O=C(c1cccc(NC(=O)c2ccn3c2CSC3c2cccnc2)c1)c1ccccn1 (configuration not stated) — higher, 165 °C
- CN1C(=O)C2CN(Cc3ccncc3)CCN2c2ccccc21 (configuration not stated) — higher, 252 to 254 °C
- Nc1ccc(Cl)cc1C=Nc1ccccc1 — higher, 74 °C
- Cc1ccc(S(=O)(=O)c2ccc3c(c2)c(CCN(C)C(=O)OC(C)(C)C)cn3C)cc1 — higher, 143 to 145 °C
- CC(C)(C)[Si](C)(C)Oc1ccc(S(N)(=O)=O)cc1 — higher, 117 to 118 °C
- O=S(=O)(On1nnc2ccc(Cl)cc21)c1ccccc1 — higher, 110 °C
- CCCCc1nn(-c2cc(NC(=O)CC)ccc2Cl)c(C#N)c1Cc1ccc(-c2ccccc2S(=O)(=O)NC(=O)OC(C)(C)C)cc1F — higher, > 95 °C
- COc1cc2c(O)c(C(=O)O)cnc2cc1F — higher, 275 °C
- CCc1ccc2[nH]c(SCC(F)(F)F)nc2c1 — higher, 127 to 129 °C
- O=C(c1ccc(I)cc1)c1ccc2c(c1)c(-c1cccc(Cl)c1)nc1nnnn12 — higher, 175 °C
- CCCCC1=Nc2ccccc2C(=O)C1 — higher, 140 °C
- NC1=NC2(O)c3cc([N+](=O)[O-])ccc3CC2S1 (configuration not stated) — higher, > 250 °C
